Consider three molecules from patent US10870647B2, “Imidazopyridine derivative, method for preparing same, and pharmaceutical composition containing same as active ingredient for preventing or treating cancer” (DAEGU-GYEONGBUK MEDICAL INNOVATION FOUNDATION, priority 2016, dated 2020).

The structures appear in SMILES notation. Where two headings read alike, the source gives them in different places.

What all share (test): Kinase selectivity, scanMAX Kinase assay panel (DiscoverX), % control at 1 uM
What all share (type): binding

The target of assay [1] is T1, scanMAX Kinase assay panel (Homo sapiens, UniProt O75460).
T1 construct: purchased DiscoverX
The conditions noted are these: ERN1; 1 uM; read-out: Percent Control (%). The gist of the method: (§1)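 Read-out is percent of control, derived from the signal with compound relative to positive and negative controls: (compound − positive)/(negative − positive) × 100. Each enzyme received test drug at 1 uM in DMSO, and values under 35% count as active.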

Assay [2] addresses T2, scanMAX Kinase assay panel (Homo sapiens, UniProt P32298).
T2 construct: purchased DiscoverX
As to conditions: GRK4; 1 uM; read-out: Percent Control (%). The essentials: as §1

In assay [3] the target is T3, scanMAX Kinase assay panel (Homo sapiens, UniProt O43318).
T3 construct: purchased DiscoverX
T3 sequence (O43318 1-606): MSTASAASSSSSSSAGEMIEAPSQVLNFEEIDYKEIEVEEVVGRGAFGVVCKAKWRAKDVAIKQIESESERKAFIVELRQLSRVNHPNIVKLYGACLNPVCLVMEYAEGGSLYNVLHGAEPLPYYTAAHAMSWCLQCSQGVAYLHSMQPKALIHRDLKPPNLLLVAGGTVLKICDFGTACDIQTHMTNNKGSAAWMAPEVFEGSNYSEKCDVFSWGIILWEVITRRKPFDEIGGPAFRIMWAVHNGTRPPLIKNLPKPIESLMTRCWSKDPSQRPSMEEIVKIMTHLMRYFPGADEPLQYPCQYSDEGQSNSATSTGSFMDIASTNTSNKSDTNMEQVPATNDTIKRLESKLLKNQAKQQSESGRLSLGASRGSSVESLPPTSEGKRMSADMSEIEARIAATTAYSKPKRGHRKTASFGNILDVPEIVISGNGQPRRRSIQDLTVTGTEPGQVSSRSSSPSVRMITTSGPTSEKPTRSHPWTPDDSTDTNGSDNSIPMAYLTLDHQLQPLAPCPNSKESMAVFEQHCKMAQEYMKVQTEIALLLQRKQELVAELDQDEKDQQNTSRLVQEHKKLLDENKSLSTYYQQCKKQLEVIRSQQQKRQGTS
As to conditions: TAK1; 1 uM; read-out: Percent Control (%). The gist of the method:
as §1

Assay [4] has as its target T4, scanMAX Kinase assay panel (Homo sapiens, UniProt P11309).
T4 construct: purchased DiscoverX
The conditions noted are these: PIM1; 1 uM; read-out: Percent Control (%). The gist of the method:
as §1

The target of assay [5] is T5, scanMAX Kinase assay panel (Homo sapiens, UniProt Q5S007).
T5 construct: purchased DiscoverX
As to conditions: LRRK2; 1 uM; read-out: Percent Control (%). The essentials: as §1

Assay [6] addresses T6, scanMAX Kinase assay panel (Homo sapiens, UniProt O75582).
T6 construct: purchased DiscoverX
The conditions noted are these: 1 uM, read-out: Percent Control (%). The essentials:
as §1

Assay [7] concerns the target T7, scanMAX Kinase assay panel (Homo sapiens, UniProt O15111).
T7 construct: purchased DiscoverX
T7 sequence (O15111 1-745): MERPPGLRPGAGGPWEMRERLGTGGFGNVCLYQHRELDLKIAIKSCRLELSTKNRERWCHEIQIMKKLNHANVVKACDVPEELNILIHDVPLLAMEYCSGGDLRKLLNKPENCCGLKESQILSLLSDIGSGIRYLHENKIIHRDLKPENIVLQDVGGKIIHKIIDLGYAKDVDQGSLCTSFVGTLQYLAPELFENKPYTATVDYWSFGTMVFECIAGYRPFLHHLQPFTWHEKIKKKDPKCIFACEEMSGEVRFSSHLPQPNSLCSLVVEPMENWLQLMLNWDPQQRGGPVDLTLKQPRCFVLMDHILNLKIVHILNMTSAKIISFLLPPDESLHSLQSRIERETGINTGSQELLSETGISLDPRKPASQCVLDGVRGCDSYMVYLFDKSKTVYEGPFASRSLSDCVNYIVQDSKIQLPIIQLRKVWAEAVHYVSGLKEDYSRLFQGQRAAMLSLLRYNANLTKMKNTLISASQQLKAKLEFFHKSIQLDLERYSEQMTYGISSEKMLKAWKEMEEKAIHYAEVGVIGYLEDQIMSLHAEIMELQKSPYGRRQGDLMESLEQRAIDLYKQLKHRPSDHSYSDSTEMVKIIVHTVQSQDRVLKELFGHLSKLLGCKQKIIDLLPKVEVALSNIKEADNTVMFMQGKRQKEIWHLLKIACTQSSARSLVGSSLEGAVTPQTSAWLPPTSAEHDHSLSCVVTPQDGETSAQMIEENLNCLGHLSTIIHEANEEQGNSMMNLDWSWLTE
As to conditions: IKK-alpha; 1 uM; read-out: Percent Control (%). The gist of the method:
as §1

Assay [8] concerns the target T8, scanMAX Kinase assay panel (Homo sapiens, UniProt P57059).
T8 construct: purchased DiscoverX
The conditions noted are these: SIK; 1 uM; read-out: Percent Control (%). The gist of the method: as §1

In assay [9] the target is T9, scanMAX Kinase assay panel (Homo sapiens, UniProt Q9H422).
T9 construct: purchased DiscoverX
The conditions noted are these: HIPK3; 1 uM; read-out: Percent Control (%). The gist of the method:
as §1

Assay [10] addresses T10, scanMAX Kinase assay panel (Homo sapiens, UniProt Q9HBH9).
T10 construct: purchased DiscoverX
As to conditions: MKNK2; 1 uM; read-out: Percent Control (%). The gist of the method: as §1

Assay [11] addresses T11, scanMAX Kinase assay panel (Homo sapiens, UniProt P15056).
T11 construct: purchased DiscoverX
The conditions noted are these: BRAF; 1 uM; read-out: Percent Control (%). The essentials:
as §1

The target of assay [12] is T12, scanMAX Kinase assay panel (Homo sapiens, UniProt Q9Y6R4).
T12 construct: purchased DiscoverX
As to conditions: MAP3K4; 1 uM; read-out: Percent Control (%). The essentials:
as §1

The target of assay [13] is T13, scanMAX Kinase assay panel (Homo sapiens, UniProt P07333).
T13 construct: purchased DiscoverX
The conditions noted are these: 1 uM, read-out: Percent Control (%). The essentials:
as §1

T9 sequence (Q9H422 whole entry): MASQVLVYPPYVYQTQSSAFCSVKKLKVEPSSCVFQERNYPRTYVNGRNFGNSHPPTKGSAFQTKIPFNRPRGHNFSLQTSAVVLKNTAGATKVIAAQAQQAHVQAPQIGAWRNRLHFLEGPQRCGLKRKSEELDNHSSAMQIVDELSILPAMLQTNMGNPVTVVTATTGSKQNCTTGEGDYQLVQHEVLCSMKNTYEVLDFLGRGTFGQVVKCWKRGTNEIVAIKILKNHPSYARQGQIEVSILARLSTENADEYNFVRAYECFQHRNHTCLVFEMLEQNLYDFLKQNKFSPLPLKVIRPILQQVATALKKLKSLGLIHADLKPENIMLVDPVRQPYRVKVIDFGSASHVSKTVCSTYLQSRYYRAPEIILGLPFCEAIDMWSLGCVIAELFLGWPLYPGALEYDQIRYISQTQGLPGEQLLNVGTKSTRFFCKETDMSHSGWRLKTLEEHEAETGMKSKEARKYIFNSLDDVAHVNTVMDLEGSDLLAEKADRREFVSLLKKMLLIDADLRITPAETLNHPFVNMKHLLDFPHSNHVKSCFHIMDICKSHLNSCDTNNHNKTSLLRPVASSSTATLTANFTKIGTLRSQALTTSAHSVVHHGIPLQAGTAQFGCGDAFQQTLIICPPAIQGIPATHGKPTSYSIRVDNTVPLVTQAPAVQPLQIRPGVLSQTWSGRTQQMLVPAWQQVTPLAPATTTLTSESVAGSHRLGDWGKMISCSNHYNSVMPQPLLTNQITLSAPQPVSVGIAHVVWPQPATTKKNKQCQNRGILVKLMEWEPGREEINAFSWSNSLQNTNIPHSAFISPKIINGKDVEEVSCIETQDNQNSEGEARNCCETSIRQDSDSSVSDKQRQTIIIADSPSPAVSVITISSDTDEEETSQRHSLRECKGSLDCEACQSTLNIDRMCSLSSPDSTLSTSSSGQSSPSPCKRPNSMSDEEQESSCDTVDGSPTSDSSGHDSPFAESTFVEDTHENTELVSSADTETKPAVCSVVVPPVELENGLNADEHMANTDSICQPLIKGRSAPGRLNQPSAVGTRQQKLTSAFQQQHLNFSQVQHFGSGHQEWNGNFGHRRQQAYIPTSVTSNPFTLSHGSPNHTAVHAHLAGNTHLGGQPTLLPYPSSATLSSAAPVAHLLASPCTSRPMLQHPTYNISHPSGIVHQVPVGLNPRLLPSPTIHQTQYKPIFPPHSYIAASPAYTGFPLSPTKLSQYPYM
T1 sequence (O75460 19-977): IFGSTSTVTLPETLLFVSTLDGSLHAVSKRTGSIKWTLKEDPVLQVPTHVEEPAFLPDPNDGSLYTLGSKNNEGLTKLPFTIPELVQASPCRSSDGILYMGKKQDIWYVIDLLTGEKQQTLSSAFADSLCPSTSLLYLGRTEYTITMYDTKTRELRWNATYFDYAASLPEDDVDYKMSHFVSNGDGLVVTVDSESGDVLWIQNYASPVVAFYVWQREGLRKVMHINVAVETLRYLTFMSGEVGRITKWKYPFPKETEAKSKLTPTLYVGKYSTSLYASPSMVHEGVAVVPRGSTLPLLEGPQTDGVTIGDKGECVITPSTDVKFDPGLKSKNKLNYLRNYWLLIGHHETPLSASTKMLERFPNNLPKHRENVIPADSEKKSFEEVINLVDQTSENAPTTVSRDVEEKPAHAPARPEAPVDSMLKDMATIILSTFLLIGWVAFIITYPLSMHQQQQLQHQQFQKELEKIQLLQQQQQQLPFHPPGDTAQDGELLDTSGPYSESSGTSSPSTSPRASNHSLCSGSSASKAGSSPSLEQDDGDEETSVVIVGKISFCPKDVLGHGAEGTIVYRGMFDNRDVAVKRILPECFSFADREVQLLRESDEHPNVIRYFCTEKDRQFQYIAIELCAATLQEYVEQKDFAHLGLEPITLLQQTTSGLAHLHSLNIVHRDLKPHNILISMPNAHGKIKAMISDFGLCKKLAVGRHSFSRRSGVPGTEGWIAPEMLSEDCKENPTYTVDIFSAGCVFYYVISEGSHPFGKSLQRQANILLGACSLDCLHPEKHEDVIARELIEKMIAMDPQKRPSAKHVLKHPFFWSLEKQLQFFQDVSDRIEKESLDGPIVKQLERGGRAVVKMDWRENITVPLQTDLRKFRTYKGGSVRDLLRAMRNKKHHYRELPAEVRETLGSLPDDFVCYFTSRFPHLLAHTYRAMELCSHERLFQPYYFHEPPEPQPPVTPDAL
T8 sequence (P57059 whole entry): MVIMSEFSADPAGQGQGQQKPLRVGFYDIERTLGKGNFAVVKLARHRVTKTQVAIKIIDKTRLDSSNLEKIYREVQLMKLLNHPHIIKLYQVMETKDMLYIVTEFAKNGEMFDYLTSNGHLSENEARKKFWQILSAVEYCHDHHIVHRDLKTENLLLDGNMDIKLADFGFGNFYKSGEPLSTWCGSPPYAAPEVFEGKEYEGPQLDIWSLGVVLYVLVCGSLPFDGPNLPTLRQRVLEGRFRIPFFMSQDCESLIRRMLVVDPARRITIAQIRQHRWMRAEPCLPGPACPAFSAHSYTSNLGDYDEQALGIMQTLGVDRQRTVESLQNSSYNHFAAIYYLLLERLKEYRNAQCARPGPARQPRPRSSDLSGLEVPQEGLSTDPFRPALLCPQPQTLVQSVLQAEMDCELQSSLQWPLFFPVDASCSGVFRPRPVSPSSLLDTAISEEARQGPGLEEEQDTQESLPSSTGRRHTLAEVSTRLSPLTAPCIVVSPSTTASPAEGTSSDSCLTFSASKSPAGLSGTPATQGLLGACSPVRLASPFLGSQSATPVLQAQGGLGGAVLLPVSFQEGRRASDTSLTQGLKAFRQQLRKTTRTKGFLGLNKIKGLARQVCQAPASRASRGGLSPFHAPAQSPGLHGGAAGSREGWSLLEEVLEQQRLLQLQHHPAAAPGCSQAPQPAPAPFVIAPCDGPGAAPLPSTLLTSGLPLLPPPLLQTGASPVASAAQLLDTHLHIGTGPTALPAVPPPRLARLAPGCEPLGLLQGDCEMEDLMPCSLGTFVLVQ
T4 sequence (P11309 whole entry): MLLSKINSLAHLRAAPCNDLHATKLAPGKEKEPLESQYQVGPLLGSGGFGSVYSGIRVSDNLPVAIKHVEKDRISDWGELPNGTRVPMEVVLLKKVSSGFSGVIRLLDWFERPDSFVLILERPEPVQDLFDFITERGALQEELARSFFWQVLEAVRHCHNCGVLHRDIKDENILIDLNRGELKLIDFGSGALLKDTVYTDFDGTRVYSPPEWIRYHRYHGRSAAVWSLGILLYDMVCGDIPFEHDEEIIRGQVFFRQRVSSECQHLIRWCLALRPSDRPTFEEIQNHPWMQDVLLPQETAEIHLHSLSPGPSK
T13 sequence (P07333 20-972): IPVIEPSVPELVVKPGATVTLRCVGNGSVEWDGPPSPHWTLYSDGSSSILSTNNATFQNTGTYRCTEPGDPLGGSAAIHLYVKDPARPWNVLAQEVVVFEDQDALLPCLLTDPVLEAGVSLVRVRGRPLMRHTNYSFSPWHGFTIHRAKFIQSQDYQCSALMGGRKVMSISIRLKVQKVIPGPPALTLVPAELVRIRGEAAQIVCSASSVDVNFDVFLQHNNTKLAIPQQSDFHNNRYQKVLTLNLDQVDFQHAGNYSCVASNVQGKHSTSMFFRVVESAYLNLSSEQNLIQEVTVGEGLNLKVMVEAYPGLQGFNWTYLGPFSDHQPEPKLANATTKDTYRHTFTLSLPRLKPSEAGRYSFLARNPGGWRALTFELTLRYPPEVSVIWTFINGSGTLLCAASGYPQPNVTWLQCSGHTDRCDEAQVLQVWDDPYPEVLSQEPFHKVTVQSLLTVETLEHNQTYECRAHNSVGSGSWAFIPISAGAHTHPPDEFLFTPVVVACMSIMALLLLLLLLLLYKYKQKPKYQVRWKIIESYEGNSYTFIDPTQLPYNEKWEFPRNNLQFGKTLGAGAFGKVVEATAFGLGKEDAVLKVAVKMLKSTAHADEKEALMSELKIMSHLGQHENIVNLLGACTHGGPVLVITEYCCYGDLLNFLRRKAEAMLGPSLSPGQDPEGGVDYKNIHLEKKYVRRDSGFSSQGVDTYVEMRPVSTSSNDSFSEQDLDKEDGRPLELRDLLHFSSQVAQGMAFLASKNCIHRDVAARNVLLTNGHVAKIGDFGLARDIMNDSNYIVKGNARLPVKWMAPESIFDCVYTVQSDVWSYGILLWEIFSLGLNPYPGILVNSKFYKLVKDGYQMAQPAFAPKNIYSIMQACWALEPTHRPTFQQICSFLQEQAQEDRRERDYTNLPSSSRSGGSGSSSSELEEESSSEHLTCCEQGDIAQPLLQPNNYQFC
T11 sequence (P15056 whole entry): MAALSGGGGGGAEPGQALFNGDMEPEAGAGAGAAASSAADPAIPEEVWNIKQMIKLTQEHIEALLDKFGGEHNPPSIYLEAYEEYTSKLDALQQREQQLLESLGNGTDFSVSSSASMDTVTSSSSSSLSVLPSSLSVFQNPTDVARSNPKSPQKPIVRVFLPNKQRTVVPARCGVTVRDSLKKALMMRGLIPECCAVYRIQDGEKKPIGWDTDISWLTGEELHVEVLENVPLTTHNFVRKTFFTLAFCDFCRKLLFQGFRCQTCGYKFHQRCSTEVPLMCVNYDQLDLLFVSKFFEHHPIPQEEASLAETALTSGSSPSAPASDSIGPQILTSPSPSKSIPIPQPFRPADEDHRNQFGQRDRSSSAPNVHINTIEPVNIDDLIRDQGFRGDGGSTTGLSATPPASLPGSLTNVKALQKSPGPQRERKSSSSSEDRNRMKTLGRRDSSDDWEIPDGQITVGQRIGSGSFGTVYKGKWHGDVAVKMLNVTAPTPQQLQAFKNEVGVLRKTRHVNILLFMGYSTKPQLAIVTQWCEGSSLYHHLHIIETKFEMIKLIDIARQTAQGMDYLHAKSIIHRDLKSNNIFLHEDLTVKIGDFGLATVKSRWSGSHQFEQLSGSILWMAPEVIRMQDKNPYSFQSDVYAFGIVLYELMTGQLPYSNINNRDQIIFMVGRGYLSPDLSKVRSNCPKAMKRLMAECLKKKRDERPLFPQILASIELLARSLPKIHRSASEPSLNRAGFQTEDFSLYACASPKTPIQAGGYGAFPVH

In the case of `Cc1ccc(C(=O)Nc2ccc(CN3CCN(C)CC3)c(C(F)(F)F)c2)cc1C#Cc1cnc2c(Nc3cnn(C)c3)cccn12` [Example 1, 4-methyl-3-((8-((1-methyl-1H-pyrazol-4-yl)amino)imidazo[1,2-a]pyridin-3-yl)ethynyl)-N-(4-((4-methylpiperazin-1-yl)methyl)-3-(trifluoromethyl)phenyl)benzamide], the remaining binding at 1 µM is 62% in assay [1]; 100% in [2]; 0% in assay [3]; 82% in assay [4]; 10% in assay [5]; 38% in assay [6] (RPS6KA5 (Kin.Dom.1-N-terminal)). Moreover, the remaining binding at 1 µM is 69% in [6] (RPS6KA5 (Kin.Dom.2-C-terminal)); 2% in assay [7]; 0% in [8]; 54% in assay [9]; 2% in [10]; 18% in assay [11]. Besides, the remaining binding at 1 µM in assay [12] was 70%; in assay [13] (CSF1R-autoinhibited), 74%; in assay [13] (CSF1R) it was 0%.
Regarding `Cc1cn(-c2cc(NC(=O)c3ccc(C)c(C#Cc4cnc5c(Nc6cnn(C)c6)cccn45)c3)cc(C(F)(F)F)c2)cn1` [Example 12, 4-methyl-N-(3-(4-methyl-1H-imidazol-1-yl)-5-(trifluoromethyl)phenyl)-3-((8-((1-methyl-1H-pyrazol-4-yl)amino)imidazo[1,2-a]pyridin-3-yl)ethynyl)benzamide], the remaining binding at 1 µM in [1] was determined as 100%; in assay [2] it was 100%; in assay [3], 14%; in assay [4] it was 92%; in assay [5], 100%; in assay [6] (RPS6KA5 (Kin.Dom.1-N-terminal)), 99%. In addition, the remaining binding at 1 µM in assay [6] (RPS6KA5 (Kin.Dom.2-C-terminal)) worked out at 94%; in assay [7], 28%; in [8], 5%; in assay [9] it was 84%; in assay [10], 78%; in assay [11] it was 80%. In addition, the remaining binding at 1 µM is 92% in assay [12], 100% in assay [13] (CSF1R-autoinhibited) and 0% in assay [13] (CSF1R).
`Cc1ccc(NC(=O)C2(C(=O)Nc3ccc(F)cc3)CC2)cc1C#Cc1cnc2c(Nc3cnn(C(C)C)c3)cccn12` [Example 78]: the remaining binding at 1 µM in assay [1] worked out at 97%; in assay [2], 100%; in [3], 76%; in [4] it was 100%; in [5], 95%; in [6] (RPS6KA5 (Kin.Dom.1-N-terminal)), 100%. The remaining binding at 1 µM in [6] (RPS6KA5 (Kin.Dom.2-C-terminal)) amounted to 100%; in assay [7] it was 100%; in [8] it was 25%; in assay [9], 100%; in assay [10] it was 100%; in assay [11] it was 100%. Further, the remaining binding at 1 µM in assay [12] was found to be 90%; in assay [13] (CSF1R-autoinhibited) it was 91%; in assay [13] (CSF1R), 2%.
